# Columns and labels:
# Experiment in all cases: microbe, parasite or virus in culture
# Design in all cases: CLSI broth microdilution MIC in LB, lowest concentration with no visible growth
# E. coli ZJ487 (NDM-1) = tested on: T1, E. coli ZJ487 (NDM-1); details: Escherichia coli; antibiotic alone; read-out: MIC (μg/mL) Alone
# T1 construct: ZJ487 (NDM-1)
# Procedure: (§1) MIC values were determined according to the broth microdilution guidelines of the Clinical and Laboratory Standards Institute (CLSI). After the tested strains were diluted with LB to a final concentration of 5×10^5 CFUs/mL, various concentrations of meropenem (0-256 μg/mL) and increasing concentrations of inhibitors (0-64 μg/mL) were added to the sterile 96-well plate, and further incubated for 18-24 h at 37 °C. The lowest concentration with no visible growth was considered as the MIC value. The synergistic effect of antibiotics and inhibitors was assessed by determining the fractional inhibitory concentration (FIC) index values according to the formula: FICI = (MIC of inhibitors in combination/MIC of inhibitors) + (MIC of antibiotics in combination/MIC of antibiotics).
# E. coli D3 (NDM-1) = tested on: T2, E. coli D3 (NDM-1); details: Escherichia coli; antibiotic alone; read-out: MIC (μg/mL) Alone
# T2 construct: D3 (NDM-1)
# Procedure: as §1
# E. coli ZC-YN7 (NDM-9) = tested on: T3, E. coli ZC-YN7 (NDM-9); details: Escherichia coli; antibiotic alone; read-out: MIC (μg/mL) Alone
# T3 construct: ZC-YN7 (NDM-9)
# Procedure: as §1
# E. cloacae 20710 (VIM-1) = tested on: T4, E. cloacae 20710 (VIM-1); details: Enterobacter cloacae; antibiotic alone; read-out: MIC (μg/mL) Alone
# T4 construct: 20710 (VIM-1)
# Procedure: as §1
# E. coli ZC-YN3 (NDM-1) = tested on: T5, E. coli ZC-YN3 (NDM-1); details: Escherichia coli; antibiotic alone; read-out: MIC (μg/mL) Alone
# T5 construct: ZC-YN3 (NDM-1)
# Procedure: as §1
# [1] = tested on: T6, E. coli BL21 (pET28a-SP-NDM-1); details: Escherichia coli, read-out: MIC (μg/mL) Alone
# T6 construct: BL21 (pET28a-SP-NDM-1)
# Procedure: as §1
# E. coli E4 (NDM-5) = tested on: T7, E. coli E4 (NDM-5); details: Escherichia coli; antibiotic alone; read-out: MIC (μg/mL) Alone
# T7 construct: E4 (NDM-5)
# Procedure: as §1
# E. coli E2 (NDM-9) = tested on: T8, E. coli E2 (NDM-9); details: Escherichia coli; antibiotic alone; read-out: MIC (μg/mL) Alone
# T8 construct: E2 (NDM-9)
# Procedure: as §1
# E. cloacae 20712 (VIM-1) = tested on: T9, E. cloacae 20712 (VIM-1); details: Enterobacter cloacae; antibiotic alone; read-out: MIC (μg/mL) Alone
# T9 construct: 20712 (VIM-1)
# Procedure: as §1
# E. coli 2Z69 (NDM-5) = tested on: T10, E. coli 2Z69 (NDM-5); details: Escherichia coli; antibiotic alone; read-out: MIC (μg/mL) Alone
# T10 construct: 2Z69 (NDM-5)
# Procedure: as §1
# [2] = tested on: T11, K. pneumoniae QD-KP3 (NDM-1); details: Klebsiella pneumoniae; antibiotic alone; read-out: MIC (μg/mL) Alone
# T11 construct: QD-KP3 (NDM-1)
# Procedure: as §1
# E. coli ATCC 25922 = tested on: T12, E. coli ATCC 25922; details: Escherichia coli, ATCC25922; antibiotic alone; read-out: MIC (μg/mL) Alone
# T12 construct: ATCC 25922
# Procedure: (§2) MIC values were determined according to the broth microdilution guidelines of the Clinical and Laboratory Standards Institute (CLSI). After the tested strains were diluted with LB to a final concentration of 5×10^5 CFUs/mL, various concentrations of meropenem (0-256 μg/mL) and increasing concentrations of inhibitors (0-64 μg/mL) were added to the sterile 96-well plate, and further incubated for 18-24 h at 37 °C. The lowest concentration with no visible growth was considered as the MIC value.
# E. coli 2Z49 (NDM-5) = tested on: T13, E. coli 2Z49 (NDM-5); details: Escherichia coli; antibiotic alone; read-out: MIC (μg/mL) Alone
# T13 construct: 2Z49 (NDM-5)
# Procedure: as §2
# [3] = tested on: T14, K. pneumoniae QD-KP2 (NDM-1); details: Klebsiella pneumoniae; antibiotic alone; read-out: MIC (μg/mL) Alone
# T14 construct: QD-KP2 (NDM-1)
# Procedure: as §2
# [4] = tested on: T15, K. pneumoniae QD-KP1 (NDM-1); details: Klebsiella pneumoniae; antibiotic alone; read-out: MIC (μg/mL) Alone
# T15 construct: QD-KP1 (NDM-1)
# Procedure: as §2
# E. coli E1 (NDM-1) = tested on: T16, E. coli E1 (NDM-1); details: Escherichia coli; antibiotic alone; read-out: MIC (μg/mL) Alone
# T16 construct: E1 (NDM-1)
# Procedure: as §2
smiles,measurement,setting,value
C[C@@H](O)[C@H]1C(=O)N2C(C(=O)O)=C(S[C@@H]3CN[C@H](C(=O)N(C)C)C3)[C@H](C)[C@H]12 [Meropenem],MIC,E. coli ZJ487 (NDM-1),32 µg/mL
same,MIC,E. coli D3 (NDM-1),13.3 ± 3.77 µg/mL
same,MIC,E. coli ZC-YN7 (NDM-9),13.3 ± 3.77 µg/mL
same,MIC,E. cloacae 20710 (VIM-1),32 µg/mL
same,MIC,E. coli ZC-YN3 (NDM-1),21.3 ± 7.54 µg/mL
same,MIC,[1],128 µg/mL
same,MIC,E. coli E4 (NDM-5),53.3 ± 15.1 µg/mL
same,MIC,E. coli E2 (NDM-9),53.3 ± 15.1 µg/mL
same,MIC,E. cloacae 20712 (VIM-1),32 µg/mL
same,MIC,E. coli 2Z69 (NDM-5),32 µg/mL
same,MIC,[2],128 µg/mL
same,MIC,E. coli ATCC 25922,0.03 µg/mL
same,MIC,E. coli 2Z49 (NDM-5),32 µg/mL
same,MIC,[3],107 ± 30.2 µg/mL
same,MIC,[4],64 µg/mL
same,MIC,E. coli E1 (NDM-1),13.3 ± 3.77 µg/mL
CC1(C)S[C@@H]2[C@H](NC(=O)[C@H](N)c3ccc(O)cc3)C(=O)N2[C@H]1C(=O)O [Amoxicillin],MIC,E. coli ZJ487 (NDM-1),512 µg/mL
CN(C)[C@@H]1C(O)=C(C(N)=O)C(=O)[C@@]2(O)C(O)=C3C(=O)c4c(O)cccc4[C@@](C)(O)[C@H]3C[C@@H]12 [Tetracycline],MIC,E. coli ZJ487 (NDM-1),213 ± 60.3 µg/mL
CNC(C)[C@@H]1CC[C@@H](N)[C@@H](O[C@H]2[C@H](O)[C@@H](O[C@H]3OC[C@](C)(O)[C@H](NC)[C@H]3O)[C@H](N)C[C@@H]2N)O1 (stereo partly drawn) [Gentamicin],MIC,E. coli ZJ487 (NDM-1),341 ± 121 µg/mL
O=C(N[C@H](CO)[C@H](O)c1ccc([N+](=O)[O-])cc1)C(Cl)Cl [Chloramphenicol],MIC,E. coli ZJ487 (NDM-1),8 µg/mL
C[C@@H](O)[C@H]1C(=O)N2C(C(=O)O)=C(SCCNC=N)C[C@H]12 [Imipenem],MIC,E. coli ZJ487 (NDM-1),13.3 ± 3.77 µg/mL
